Experimental data reported in patent US6911537B2, “Xenobiotic compound modulated expression systems and uses therefor” (The Salk Institute for Biological Studies, priority 1998, dated 2005).
Entries after “also recorded” stand apart in the source; their conditions may differ. Read-outs that look alike come from different tables or passages of the source.

What was measured:
endogenous PXR = target: T1, endogenous PXR (Rattus norvegicus, UniProt Q9R1A7); details: hepatocytes
T1 sequence (Q9R1A7 1-431): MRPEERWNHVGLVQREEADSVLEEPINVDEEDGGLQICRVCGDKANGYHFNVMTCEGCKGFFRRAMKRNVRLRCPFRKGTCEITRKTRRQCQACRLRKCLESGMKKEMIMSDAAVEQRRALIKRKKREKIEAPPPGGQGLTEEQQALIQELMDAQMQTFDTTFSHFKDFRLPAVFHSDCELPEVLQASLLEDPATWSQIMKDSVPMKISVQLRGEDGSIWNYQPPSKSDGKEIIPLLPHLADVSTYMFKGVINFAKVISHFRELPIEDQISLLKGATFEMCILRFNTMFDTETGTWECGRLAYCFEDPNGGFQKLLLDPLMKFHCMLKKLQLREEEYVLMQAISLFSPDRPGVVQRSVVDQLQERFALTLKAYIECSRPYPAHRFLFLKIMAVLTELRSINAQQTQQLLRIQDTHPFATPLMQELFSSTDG
Procedure: (§1) The PCR-amplified sequences and target mutagenesis were confirmed by DNA sequencing.
(§2) All compounds were purchased from Sigma.
(§3) A panel of natural and synthetic steroid and nonsteroid compounds were tested for their ability to activate SXR and/or PXR in transfection-based assays using primary rat hepatocytes as recipient cells and the cellular promoters of the rat CYP3A23 gene or the human CYP3A4 gene as reporters.

SXR [1] = target: T2, SXR (Homo sapiens, UniProt O75469)
T2 sequence (O75469 1-434): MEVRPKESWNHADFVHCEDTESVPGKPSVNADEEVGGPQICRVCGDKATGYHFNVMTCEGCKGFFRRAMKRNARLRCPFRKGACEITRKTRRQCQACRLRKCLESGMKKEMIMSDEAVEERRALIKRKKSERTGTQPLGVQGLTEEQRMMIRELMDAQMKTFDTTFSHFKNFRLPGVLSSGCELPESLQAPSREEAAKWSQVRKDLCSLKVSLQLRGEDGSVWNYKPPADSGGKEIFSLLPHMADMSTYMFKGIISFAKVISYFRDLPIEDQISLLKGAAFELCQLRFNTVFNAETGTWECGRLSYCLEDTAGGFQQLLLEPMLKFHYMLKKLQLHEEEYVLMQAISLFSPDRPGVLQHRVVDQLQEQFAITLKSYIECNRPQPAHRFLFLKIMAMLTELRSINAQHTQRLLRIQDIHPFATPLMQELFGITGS
T2 sequence (P19793 1-462 partner): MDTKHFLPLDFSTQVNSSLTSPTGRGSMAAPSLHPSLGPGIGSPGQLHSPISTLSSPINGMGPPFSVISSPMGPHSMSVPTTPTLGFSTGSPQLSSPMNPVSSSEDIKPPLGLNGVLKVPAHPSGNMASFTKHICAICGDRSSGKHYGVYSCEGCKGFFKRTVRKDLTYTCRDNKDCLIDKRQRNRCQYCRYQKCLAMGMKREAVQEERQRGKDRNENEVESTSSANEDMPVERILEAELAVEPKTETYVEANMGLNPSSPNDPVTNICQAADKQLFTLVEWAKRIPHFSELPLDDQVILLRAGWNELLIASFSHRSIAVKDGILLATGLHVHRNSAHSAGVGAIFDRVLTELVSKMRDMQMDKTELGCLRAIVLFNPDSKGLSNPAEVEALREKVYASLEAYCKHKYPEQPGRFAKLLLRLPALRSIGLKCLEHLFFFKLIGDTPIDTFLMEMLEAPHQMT
Text: (§4) Thus, the protein coding region of SXR was PCR amplified and subcloned into NcoI and BamH1 sites of the vector pCDG1 (see Blumberg et al., supra). During this process the putative initiator Leu was converted to Met with a Kozak consensus sequence CCATGG.

hGRα = target: T3, hGRα (Homo sapiens, UniProt P04150); assay: Activation of hGRα on MTV-luc; format: cell-based; details: 50 μM (FIG. 7D; 50 mM in FIG. 5 legend)
T3 construct: expressed in transfected cells
T3 sequence (P04150 1-777): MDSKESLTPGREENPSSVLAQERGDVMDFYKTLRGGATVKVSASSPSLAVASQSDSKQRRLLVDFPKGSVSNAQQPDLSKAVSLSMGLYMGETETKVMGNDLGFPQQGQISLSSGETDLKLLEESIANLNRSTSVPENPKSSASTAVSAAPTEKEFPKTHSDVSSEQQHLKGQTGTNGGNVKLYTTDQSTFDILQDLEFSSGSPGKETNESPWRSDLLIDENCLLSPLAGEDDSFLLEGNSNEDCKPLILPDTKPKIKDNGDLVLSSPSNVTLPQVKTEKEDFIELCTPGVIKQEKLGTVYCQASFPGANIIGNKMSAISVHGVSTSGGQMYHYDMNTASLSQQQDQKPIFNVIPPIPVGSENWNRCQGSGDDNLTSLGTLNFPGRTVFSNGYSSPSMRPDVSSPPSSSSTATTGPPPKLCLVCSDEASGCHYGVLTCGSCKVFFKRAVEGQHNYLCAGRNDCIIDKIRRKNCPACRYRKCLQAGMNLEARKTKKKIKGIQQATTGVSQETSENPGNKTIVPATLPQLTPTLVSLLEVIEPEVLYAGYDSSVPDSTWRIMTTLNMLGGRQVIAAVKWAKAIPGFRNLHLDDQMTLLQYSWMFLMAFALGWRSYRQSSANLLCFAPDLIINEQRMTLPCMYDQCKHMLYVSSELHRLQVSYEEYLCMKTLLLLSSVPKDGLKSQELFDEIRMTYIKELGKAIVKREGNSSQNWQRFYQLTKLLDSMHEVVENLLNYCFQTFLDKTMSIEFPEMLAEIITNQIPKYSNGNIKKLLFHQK
Procedure: FIG. 5 further illustrates the broad ligand specificity of SXR. […] 6β-hydroxylated, non-reduced, 5α and 5β reduced forms of corticosterone were tested for their ability to activate GAL-SXR on tk(MH100)4-luc and hGRa on MTV-luc at […].
6β-hydroxylated, non-reduced, 5α and 5β reduced forms of corticosterone were tested for their ability to activate GAL-hSXR on tk(MH100)4-luc (lefthand group of 5 columns) and hGRα on MTV-luc at 50 μM (righthand group of 5 columns). […] In each group of columns: column 1=solvent; column 2=corticosterone; column 3=5α-tetrahydrocorticosterone; column 4=5β-tetrahydrocorticosterone; and column 5=6β-OH-corticosterone.

SXR [2] = target: T4, SXR (Homo sapiens, UniProt O75469); remark: listed apart in the source
T4 sequence (O75469 1-434): T2 sequence (O75469 1-434)
Procedure: as §1, §2, §3

CYP3A11 gene = details: single dose 24 h before sacrifice
Procedure: The animals were allowed free access to food and water at all times. […] When necessary, mice were treated with a single intraperitoneal injection of DEX (50 mg/kg), PCN (40 mg/kg), or CTZ (50 mg/kg).
To detect specific transcripts, [^32P]-cDNA probes labeled by Random Primer Labeling Kit (Boringher) were hybridized to the membranes. The probe used to detect transgene contains both the SXR cDNA and the SV40 sequences. […] The filters were subsequently stripped and rehybridized with a murine glyceraldehyde-3-phosphate dehydrogenase (GAPDH) cDNA probe for RNA loading normalization.
Tissues were harvested 24 h later and subjected to Northern blot analysis.

SXR [3] = target: T2, SXR; assay: Transfection-based reporter assay in CV-1 cells, GAL4-SXR or full-length SXR; parameters: Activation of SXR response elements (DR-3, DR-4, DR-5) by full-length SXR: dose or concentration left out as unconfirmed; details: for Activation of human SXR by compounds known to induce CYP3A4: 50 μM, tamoxifen 5 μM (FIG. 7A); for Activation of SXR in transfection-based assays: GAL4-SXR LBD chimera or full-length SXR, CV-1 cells, steroids at high doses, up to 50 mM [sic]; for Activation of SXR response elements (DR-3, DR-4, DR-5) by full-length SXR: cotransfection, panel of steroids as printed (FIG. 4)
Text: as §4

Cc1ccc2cc3c(ccc4ccccc43)c3c2c1CC3 [3MC, 3-methylcholanthrene]
Activation of CYP3A23 promoter reporter in the absence of SXR (endogenous PXR): fail to activate or behave as poor activators

C[C@]12CC[C@@H](O)C[C@@H]1CC[C@@H]1[C@@H]2[C@@H](O)C[C@]2(C)[C@@H](C(=O)CO)CC[C@@H]12 [5α, 5α-tetrahydrocorticosterone]
Activation of GAL-SXR on tk(MH100)4-luc by corticosterone derivatives (SXR [1]): effective SXR activators
Activation of hGRα on MTV-luc by corticosterone derivatives (hGRα): slightly active

C[C@]12CCC(O)C[C@H]1CC[C@@H]1[C@@H]2[C@@H](O)C[C@]2(C)[C@@H](C(=O)CO)CC[C@@H]12 (stereo partly drawn) [5β, 5β-tetrahydrocorticosterone]
Activation of GAL-SXR on tk(MH100)4-luc by corticosterone derivatives (SXR [1]): effective SXR activators
Activation of hGRα on MTV-luc by corticosterone derivatives (hGRα): completely inactive

C[C@]12C[C@H](O)[C@H]3[C@@H](C[C@@H](O)C4=CC(=O)CC[C@@]43C)[C@@H]1CC[C@@H]2C(=O)CO [6β-hydroxy corticosterone]
Activation of hGRα on MTV-luc by corticosterone derivatives (hGRα): slightly active

CCCCC/C=C/C=C1/C(=O)C=C[C@@H]1C/C=C\CCCC(=O)O [15d-PGJ2]
Activation of CYP3A23 promoter reporter by PPARγ ligands in the presence of SXR (SXR [2]): fail to activate

Clc1ccccc1C(c1ccccc1)(c1ccccc1)n1ccnc1 [CTZ, clotrimazole]
Activation of CYP3A23 promoter reporter with mutated DR-3 element (DR3/M1, DR3/M2) (SXR [2]): abolished
Inducibility of CYP3A23 promoter reporter with DR-3 replaced by IR-6 element (DR3/IR6) (SXR [2]): rescueS the inducibility
Induction of liver CYP3A11 expression in Alb-SXR transgenic mice (CYP3A11 gene; RIF 5 mg/kg, BRL 20 mg/kg, troglitazone and ciglitazone 150 mg/kg by gavage, CTZ 50 mg/kg, PCN 40 mg/kg i.p.): higher level
Induction of liver CYP3A11 expression in wild type / nontransgenic mice (CYP3A11 gene; same doses as in transgenic mice): moderate level

CC/C(=C(/CC)c1ccc(O)cc1)c1ccc(O)cc1 [DES, diethylstilbestrol]
Activation of human SXR by compounds known to induce CYP3A4 (SXR [3]): most potent activators

C[C@]12CCC(=O)C=C1CC[C@@H]1[C@@H]2[C@@H](O)C[C@]2(C=O)[C@@H](C(=O)CO)CC[C@@H]12 [aldosterone]
Activation of SXR in transfection-based assays (SXR [3]): inactive
Activation of SXR response elements (DR-3, DR-4, DR-5) by full-length SXR (SXR [3]): little response

C[C@]12C[C@H](O)[C@H]3[C@@H](CCC4=CC(=O)CC[C@@]43C)[C@@H]1CC[C@@H]2C(=O)CO [corticosterone]
Activation of human SXR by compounds known to induce CYP3A4 (SXR [3]): most potent activators
Activation of SXR in transfection-based assays (SXR [3]): most potent and efficacious activator; also recorded: activated
Activation of SXR response elements (DR-3, DR-4, DR-5) by full-length SXR (SXR [3]): among the best activators

C[C@]12CCC(=O)C=C1CC[C@@H]1[C@@H]2[C@@H](O)C[C@@]2(C)[C@H]1CC[C@]2(O)C(=O)CO [cortisol]
Activation of SXR response elements (DR-3, DR-4, DR-5) by full-length SXR (SXR [3]): little response

C[C@]12CCC(=O)C=C1CC[C@@H]1[C@@H]2C(=O)C[C@@]2(C)[C@H]1CC[C@]2(O)C(=O)CO [cortisone]
Activation of SXR response elements (DR-3, DR-4, DR-5) by full-length SXR (SXR [3]): intermediate activators; also recorded: intermediate group

O=c1oc2cc(O)ccc2c2oc3cc(O)ccc3c12 [coumestrol]
Activation of human SXR by compounds known to induce CYP3A4 (SXR [3]): most potent activators

C[C@]12CCC(=O)C[C@@H]1CC[C@@H]1[C@@H]2CC[C@]2(C)[C@@H](O)CC[C@@H]12 [dihydrotestosterone]
Activation of SXR in transfection-based assays (SXR [1]): remarkably effective activators
Activation of SXR response elements (DR-3, DR-4, DR-5) by full-length SXR (SXR [1]): among the best activators
Activation of human SXR by compounds known to induce CYP3A4 (SXR [1]): activate

Oc1ccc([C@H]2COc3cc(O)ccc3C2)cc1 [equol]
Activation of human SXR by compounds known to induce CYP3A4 (SXR [3]): activate

O=c1c(-c2ccc(O)cc2)coc2cc(O)cc(O)c12 [genistein]
Activation of human SXR by compounds known to induce CYP3A4 (SXR [3]): activate

CCC1(c2ccccc2)C(=O)NC(=O)NC1=O [phenobarbital]
Induction of CYP3A23 promoter reporter with co-transfection of SXR (SXR [2]): significant induction
Activation of CYP3A23 promoter reporter in the absence of SXR (endogenous PXR): fail to activate or behave as poor activators

CC(=O)[C@H]1CC[C@H]2[C@@H]3CC=C4C[C@@H](O)CC[C@]4(C)[C@H]3CC[C@]12C [pregnenolone]
Induction of CYP3A23 promoter reporter with co-transfection of SXR (SXR [2]): significant induction
Activation of CYP3A23 promoter reporter in the absence of SXR (endogenous PXR): fail to activate or behave as poor activators
Activation of SXR response elements (DR-3, DR-4, DR-5) by full-length SXR (SXR [3]): among the best activators

CC(=O)[C@H]1CC[C@H]2[C@@H]3CCC4=CC(=O)CC[C@]4(C)[C@H]3CC[C@]12C [progesterone]
Activation of CYP3A23 promoter reporter in the absence of SXR (endogenous PXR): fail to activate or behave as poor activators

CC(=O)S[C@@H]1CC2=CC(=O)CC[C@]2(C)[C@H]2CC[C@@]3(C)[C@@H](CC[C@@]34CCC(=O)O4)[C@H]12 [spironolactone]
Activation of human SXR by compounds known to induce CYP3A4 (SXR [1]): activate

estrogen
Activation of SXR in transfection-based assays (SXR [3]): activated
